Source: US6413935B1, “Induction of immune response against desired determinants” (priority 1993, dated 2002)
Read-outs that look alike come from different tables or passages of the source. Non-standard residues stand in square brackets, D forms with d. Residues, ends and D or L forms follow the SMILES beside them. No end group written: not given here. Cha = N[C@@H](CC1CCCCC1)C(=O)O

What was measured:
DR4w4 [1] = target: T1, DR4w4 (Homo sapiens, UniProt P01903+P01911, A100K/A169T/F76Y/I96L/K127E/L162R/M171V/N62H/P40V/Q125Y/R42H/S133A/S149N/S66Y/V115G/V209L/W38E); settings: relative to parent 760.57
DR1 = DR1 (Homo sapiens, UniProt P01903+P01911, A100R/D57E/F55L/F60I/F76Y/I96L/L162R/M171V/P40L/Q125E/R42F/V115G/Y59C); settings: relative to parent 760.57
DQ3.1 = settings: for IC50: read-out: PADRE Class II Binding Affinities, Table VIII A
DRw53 [2] = target: T2, DRw53 (Homo sapiens, UniProt P01903+P13762); settings: relative to parent 760.57
T2 sequence (P01903 26-254): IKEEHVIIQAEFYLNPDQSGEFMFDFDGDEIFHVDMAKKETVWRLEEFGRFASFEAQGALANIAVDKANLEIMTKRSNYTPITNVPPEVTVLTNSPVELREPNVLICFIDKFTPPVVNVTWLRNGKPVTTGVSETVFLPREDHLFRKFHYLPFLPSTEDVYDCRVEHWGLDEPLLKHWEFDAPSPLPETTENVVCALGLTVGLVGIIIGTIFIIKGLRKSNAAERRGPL
T2 sequence (P13762 30-266): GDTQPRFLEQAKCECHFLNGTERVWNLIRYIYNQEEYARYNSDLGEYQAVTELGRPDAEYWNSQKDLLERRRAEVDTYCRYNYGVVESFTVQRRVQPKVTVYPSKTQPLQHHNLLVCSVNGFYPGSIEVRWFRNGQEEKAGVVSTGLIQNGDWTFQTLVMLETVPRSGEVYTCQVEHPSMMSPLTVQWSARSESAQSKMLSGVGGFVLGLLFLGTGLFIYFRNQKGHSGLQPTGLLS

DR3 [3] = target: T3, DR3 (Homo sapiens, UniProt P01903+P01911, A100K/A102G/A103R/A169T/F55Y/I96L/K41T/L162R/M171V/P40S/Q125H/Q178H/Q39Y/R42S/S66N/T106N/T262R/W38E/Y61H); settings: relative to parent 760.57
DRw53 [4] = target: T2, DRw53; experiment: biochemical
DR3 [5] = target: T3, DR3; experiment: biochemical
human PBMC T cell lines = assay type: cell-based
DR2w2a [6] = target: T4, DR2w2a (Homo sapiens, UniProt P01903+Q30154); experiment: biochemical
T4 sequence (P01903 26-254): as the sequence (P01903 26-254) above
T4 sequence (Q30154 30-266): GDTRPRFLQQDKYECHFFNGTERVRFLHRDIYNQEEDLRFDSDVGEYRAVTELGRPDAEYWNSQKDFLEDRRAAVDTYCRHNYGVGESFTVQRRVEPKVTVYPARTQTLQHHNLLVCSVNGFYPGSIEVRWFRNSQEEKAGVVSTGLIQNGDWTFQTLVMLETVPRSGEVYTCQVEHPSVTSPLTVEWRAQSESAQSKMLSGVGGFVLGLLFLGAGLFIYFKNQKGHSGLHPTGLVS

DR2w2a [7] = target: T4, DR2w2a; settings: read-out: Binding capacity DR2w2a, IC50
DR4w4 [8] = target: T1, DR4w4; experiment: biochemical; settings: PADRE Class II Binding Affinities DR4w4
[9] = read-out: PADRE Class II Binding Affinities DR7, Table VIII A
[10] = read-out: PADRE Class II Binding Affinities DR5, Table VIII A

Q: What does the source list for C[C@H](NC(=O)[C@H](C)NC(=O)[C@H](C)NC(=O)[C@H](CC1CCCCC1)NC(=O)[C@H](C)NC(=O)[C@@H](C)N)C(=O)N[C@@H](C)C(=O)N[C@H](C(=O)N[C@@H](CCC(=O)O)C(=O)N[C@@H](CCCCN)C(=O)N[C@@H](C)C(=O)N[C@@H](C)C(=O)N[C@H](C)C(N)=O)[C@@H](C)O [Peptide 906.30] (H-[dA]A[Cha]AAAATEKAA[dA]-NH2; N-terminus and C-terminus assumed)?
A: Loss of DR4w4 binding reactivity (DR4w4 [1]): 7 fold; Loss of DR1 binding reactivity (DR1): 8 fold; IC50 (DR7; [9]): 758 nM; Loss of DR7 binding reactivity (DR7; relative to parent 760.57): 10 fold; IC50 (DQ3.1): 148 nM; Increase in DQ3.1 binding reactivity (DQ3.1; relative to parent 760.57): no reactivity was gained; IC50 (DR5; [10]): 51.5 nM; Loss of DR5 binding reactivity (DR5; relative to parent 760.57): 10 fold

Q: With CC(C)C[C@H](NC(=O)[C@@H](NC(=O)[C@H](C)NC(=O)[C@H](C)NC(=O)[C@H](C)NC(=O)[C@H](C)NC(=O)[C@H](CC1CCCCC1)NC(=O)[C@H](C)NC(=O)[C@@H](C)N)[C@@H](C)O)C(=O)N[C@@H](CCCCN)C(=O)N[C@@H](C)C(=O)N[C@@H](Cc1ccccc1)C(=O)N[C@H](C)C(N)=O [Peptide 906.50] (H-[dA]A[Cha]AAAATLKAF[dA]-NH2; N-terminus and C-terminus assumed) as the compound, how does the “Increase in DR53 reactivity” value (DRw53 [2]) read?
A: 40 fold

Q: And the “Increase in DR3 reactivity” value (DR3 [3])?
A: 8 fold

Q: What about the IC50 (DR7; [9]) of the same compound?
A: 73.5 nM

Q: What about the IC50 (DQ3.1) of the same compound?
A: 20 nM

Q: What about the IC50 (DR5; [10]) of the same compound?
A: 9.5 nM

Q: With CC(C)C[C@H](NC(=O)[C@@H](NC(=O)[C@H](Cc1c[nH]c2ccccc12)NC(=O)[C@H](C)NC(=O)[C@H](C)NC(=O)[C@@H](NC(=O)[C@H](CC1CCCCC1)NC(=O)[C@H](CCCCN)NC(=O)[C@H](C)N)C(C)C)[C@@H](C)O)C(=O)N[C@@H](CCCCN)C(=O)N[C@@H](C)C(=O)N[C@@H](C)C(=O)N[C@@H](C)C(N)=O [Peptide 965.17] as the compound, how does the IC50 (DRw53 [4]) read?
A: 107 nM

Q: And the IC50 (DR3 [5]; PADRE Class II Binding Affinities DR3)?
A: 3210 nM

Q: And the “Donors with significant (>10,000 cpm) T cell response / donors tested, second stimulation” value (human PBMC T cell lines)?
A: 2/5

Q: What about the “Donors with significant (>10,000 cpm) T cell response / donors tested, third stimulation” value (human PBMC T cell lines) of the same compound?
A: 4/5

Q: And the IC50 (DR2w2a [6]; PADRE Class II Binding Affinities DR2w282)?
A: 5.8 nM

Q: How did the IC50 (DR2w2a [7]) turn out when “YSGPLKAEIAQRLEDV [MT (Y)17-31, reference compound]” was run?
A: 350 nM

Q: And the IC50 (DR7; read-out: Binding capacity DR7, IC50)?
A: 208 nM

Q: What about the IC50 (DR5; read-out: Binding capacity DR5, IC50) of the same compound?
A: > 10000 nM

Q: Which IC50 (DRw53 [4]) does the source give for CC(C)C[C@H](NC(=O)[C@@H](NC(=O)[C@H](Cc1c[nH]cn1)NC(=O)[C@H](C)NC(=O)[C@H](C)NC(=O)[C@@H](NC(=O)[C@H](CC1CCCCC1)NC(=O)[C@H](CCCCN)NC(=O)[C@@H](C)N)C(C)C)[C@@H](C)O)C(=O)N[C@@H](CCCCN)C(=O)N[C@@H](C)C(=O)N[C@@H](C)C(=O)N[C@H](C)C(N)=O [Peptide 955.15] here?
A: 50 nM

Q: And the IC50 (DR4w4 [8])?
A: 3.2 nM

Q: What about the IC50 (DR3 [5]; PADRE Class II Binding Affinities DR3, Table IX) of the same compound?
A: 2500 nM

Q: What about the “Donors with significant (>10,000 cpm) T cell response / donors tested, second stimulation” value (human PBMC T cell lines) of the same compound?
A: 2/15

Q: And the “Donors with significant (>10,000 cpm) T cell response / donors tested, third stimulation” value (human PBMC T cell lines)?
A: 4/5

Q: And the IC50 (DR2w2a [6]; PADRE Class II Binding Affinities DR2w282, Table IX)?
A: 5.4 nM
